The results in this text go back to ChEMBL document CHEMBL4706618, “Discovery of lysosome-targeted covalent anticancer agents based on isosteviol skeleton” (Eur J Med Chem, 2021).

The nature of the series: GSH reactivity in pH 7.4 sodium phosphate deuterium oxide buffer assessed as half life in presence of glutathione measured up to 6 hrs by 1H NMR analysis. Conditions: sodium phosphate deuterium oxide buffer with glutathione. Format: ADME.

Structures are written as SMILES.

As usually defined, the half-life is the time needed for the level to fall by half in the phase considered. With `C=C1C(=O)C=C[C@]2(C)[C@@H]1CC[C@@]13C/C(=N\OC)[C@@](C)(CC[C@H]12)C3`, the half-life came to 30 min.
